Measurements taken from article PMC5423244, “Synthesis and Biological Evaluation of N-(5-(pyridin-2-yl)-1,3,4-thiadiazol-2-yl)benzamide Derivatives as Lipoxygenase Inhibitor with Potential Anticancer Activity” (Iranian Journal of Pharmaceutical Research : IJPR, 2017).

target: T1, SLO; 15-lipoxygenase-1 (15-LOX-1) (Glycine max, UniProt P08170); test: linoleic acid hydroperoxide by MBTH/DMAB/hemoglobin colour reaction, […] nm; type: biochemical
T1 construct: gene LOX1.1; SLO (abbreviation not spelt out); the introduction and aim speak of human 15-LO-1
T1 sequence (P08170 1-839): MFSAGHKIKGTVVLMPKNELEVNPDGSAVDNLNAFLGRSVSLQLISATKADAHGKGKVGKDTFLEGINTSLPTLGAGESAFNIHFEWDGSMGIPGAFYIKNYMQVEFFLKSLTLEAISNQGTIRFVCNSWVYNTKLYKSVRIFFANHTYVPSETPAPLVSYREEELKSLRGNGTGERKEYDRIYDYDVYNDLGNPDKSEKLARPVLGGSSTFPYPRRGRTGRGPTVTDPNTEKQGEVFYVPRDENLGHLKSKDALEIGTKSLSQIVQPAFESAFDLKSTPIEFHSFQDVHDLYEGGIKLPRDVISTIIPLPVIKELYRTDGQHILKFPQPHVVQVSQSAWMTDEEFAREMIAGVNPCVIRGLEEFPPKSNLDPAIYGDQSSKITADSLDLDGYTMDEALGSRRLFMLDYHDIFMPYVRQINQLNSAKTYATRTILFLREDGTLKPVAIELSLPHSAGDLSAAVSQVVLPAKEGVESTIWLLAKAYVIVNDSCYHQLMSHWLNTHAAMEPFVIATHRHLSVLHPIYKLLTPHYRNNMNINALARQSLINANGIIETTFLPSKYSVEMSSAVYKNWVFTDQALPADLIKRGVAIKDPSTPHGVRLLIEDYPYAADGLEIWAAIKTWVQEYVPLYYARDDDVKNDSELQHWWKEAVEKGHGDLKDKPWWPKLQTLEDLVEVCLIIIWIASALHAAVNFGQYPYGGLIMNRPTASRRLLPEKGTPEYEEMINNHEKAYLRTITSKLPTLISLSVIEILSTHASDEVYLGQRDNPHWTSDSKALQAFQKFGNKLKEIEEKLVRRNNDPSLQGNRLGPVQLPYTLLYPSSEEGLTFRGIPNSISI

First: COc1ccc(C(=O)Nc2nnc(-c3ccccn3)s2)cc1 [4l, 4-Methoxy-N-(5-(pyridin-2-yl)-1,3,4-thiadiazol-2-yl)benzamide]
Second: O=C(Nc1nnc(-c2ccccn2)s1)c1ccc(F)cc1 [4f, 4-Fluoro-N-(5-(pyridin-2-yl)-1,3,4-thiadiazol-2-yl)benzamide]
The inhibition at 200 µM of the first is lower: 14% for the first, 25% for the second.

First: O=C(Nc1nnc(-c2ccccn2)s1)c1cccc(Cl)c1 [4b, 3-Chloro-N-(5-(pyridin-2-yl)-1,3,4-thiadiazol-2-yl)benzamide]
Second: O=C(Nc1nnc(-c2ccccn2)s1)c1cccc(F)c1 [4e, 3-Fluoro-N-(5-(pyridin-2-yl)-1,3,4-thiadiazol-2-yl)benzamide]
The inhibition at 200 µM of the first is lower: 8% for the first, 13% for the second.

First: O=C(Nc1nnc(-c2ccccn2)s1)c1ccccc1Cl [4a, 2-Chloro-N-(5-(pyridin-2-yl)-1,3,4-thiadiazol-2-yl)benzamide]
Second: O=C(Nc1nnc(-c2ccccn2)s1)c1ccccc1F [4d, 2-Fluoro-N-(5-(pyridin-2-yl)-1,3,4-thiadiazol-2-yl)benzamide]
The inhibition at 200 µM of the first is lower: 8% for the first, 17% for the second.

Going from `O=C(Nc1nnc(-c2ccccn2)s1)c1ccc(Cl)cc1` [4c, 4-Chloro-N-(5-(pyridin-2-yl)-1,3,4-thiadiazol-2-yl)benzamide] to `COc1cccc(C(=O)Nc2nnc(-c3ccccn3)s2)c1` [4k, 3-Methoxy-N-(5-(pyridin-2-yl)-1,3,4-thiadiazol-2-yl)benzamide], the inhibition at 200 µM rises from 12% to 26%.

`COc1ccccc1C(=O)Nc1nnc(-c2ccccn2)s1` [4j, 2-Methoxy-N-(5-(pyridin-2-yl)-1,3,4-thiadiazol-2-yl)benzamide] gave an inhibition at 200 µM of 28%.
